Experiments:
[1] = system: primary afferent-evoked excitatory postsynaptic currents (EPSCs) from lamina II; assay: Electrophysiological recording of primary afferent-evoked EPSCs in lumbar spinal cord slices from spared-nerve injury animals; type: cell-based
Source text: Electrophysiological recordings were done on 650 μm thick transverse slices of lumbar spinal cord (from spared-nerve injury animals) with attached L4 dorsal root that were perfused with ice cold Krebs' solution ([in mM]: NaCl 117, KCl 3.6, CaCl2 2.5, MgCl2 1.2, NaH2PO4 1.2, NaHCO3 25 and glucose 11) saturated with 95% O2 and 5% CO2. To record primary afferent-evoked excitatory postsynaptic currents (EPSCs) from lamina II, whole cells were patch-clamped and then voltage-clamped at −70 mV. Orthodromicstimulation of L4 dorsal root was performed with a suction electrode attached to a constant current stimulator and graded intensity stimulation sufficient to recruit different afferent populations (Aβ, Aδ, and C-fibers) was used. Resistance of patch pipettes were 5-10 MW when filled with (in mM): Cs2SO4 110, CaCl2 0.5, MgCl2 2, EGTA 5, HEPES 5, TEA 5, ATP-Mg salt 5. Currents were amplified (Axopatch 200A), filtered at 2 kHz, digitized at 5 kHz and analyzed using pCLAMP 6 (Axon Instruments). SAN-Gly was dissolved in ice cold KREBs and bath-applied at two concentrations ([…]). […] In addition, as expected, the same concentration of SAN had no effect.

Male Sprague-Dawley rats = assay: Mechanical allodynia (von Frey filaments) in rat segmental spinal nerve injury and chronic constriction nerve injury models, results combined; type: in vivo; conditions: single injection
Method: Male Sprague-Dawley rats (Charles River Laboratories) weighing 150-200 g were used to evaluate the analgesic properties of the SAN-Gly formulation. The animals were housed in groups of three in plastic cages with soft bedding and under a 12 hour light/dark cycle. Food and water were available ad libitum. After one week of acclimatization to the laboratory conditions, all animals were tested to establish a baseline mechanical allodynia.
Since different animal models of pain can provide different experimental results, SAN-Gly was tested using two rat models. All experiments were performed in a single-blinded fashion, i.e., the experimenter was not aware of which rats received the control saline and which rats received the SAN-Gly formulation.
One rat model used was based on an experimentally produced segmental spinal nerve injury (Kim et al., Pain 50:355-363, 1992). One week after the acclimatization to laboratory conditions, baseline measurements were recorded and surgery was performed as described in Kim et al., supra. Rats were anesthetized with halothane in oxygen and placed in a prone position. A midline skin incision at L4-S2 was made, and paraspinal muscles were separated from the spinous processes in the L4-S2 region. […]
The rats were allowed to recover from surgery for at least a week. […] Both groups were then monitored for allodynia at various time points after surgery. […]

[2] = compared with KRN5500; cited from earlier work
[3] = 100 mM bath-applied, whole-cell patch clamp at -70 mV, observed in three out of five cells

Compound: NCC(=O)N[C@@H]1[C@@H](O)[C@@H](O)[C@@H](Nc2ncnc3[nH]cnc23)O[C@H]1[C@@H](O)CO [SAN-Gly, 4′-N-glycyl spicamycin amino nucleoside]
- amplitude of EPSCs [1, 3]: reduced the amplitude
- latency of EPSCs [1, 3]: increased the latency
- effect on EPSCs upon washout of the drug ([1]; after 100 mM bath application): reversed upon washout
- recovery towards baseline pain behavior (Male Sprague-Dawley rats; 100 mg/kg body weight, single bolus in the tail vein, both animal models combined (FIG. 1)): 60%
- persistence of increased pain tolerance (Male Sprague-Dawley rats; 100 mg/kg, tail vein, days after surgery as printed, both models combined): at least 7 days
- cytotoxicity relative to water-insoluble spicamycin derivatives such as KRN5500 [2]: less cytotoxic

— US7632825B2, “Methods of decreasing or preventing pain using spicamycin derivatives” (Bayer Pharmaceuticals Corporation, priority 2000, dated 2009)
